In patent publication US4668770A, “Renin inhibitory tripeptides” (Merck & Co., Inc., priority 1984, dated 1987):
Non-standard residues stand in square brackets, D forms with d. Residues, ends and D or L forms follow the SMILES beside them. *: point of attachment. Sta = CC(C)C[C@H](N)[C@@H](O)CC(=O)O; Phenoxyacetyl = O=C(COc1ccccc1)*; Boc = CC(C)(C)OC(=O)*

What was measured:
hog kidney renin = hog kidney renin (Sus scrofa, UniProt A0A287APG1); assay: Hog renin inhibition; assay type: biochemical; details: for IC50: pH 7.3, concentration producing 50% inhibition of renin activity, read-out: I50
Method: An assay was carried out in order to determine the inhibitory potency of the peptides of the present invention. The assay measured the inhibition of hog kidney renin, and was in accordance with the procedure described in Rich et al., J. Med. Chem. 23: 27, 1980, except that a pH of 7.3 was used. The results of the assay, illustrated in the table below, are expressed as I50 values, which refers to the concentration of peptide inhibitor necessary to produce 50% inhibition of renin activity. This I50 value is obtained typically by plotting data from four inhibitor concentrations.

human kidney renin = biological target: T1, human kidney renin (Homo sapiens, UniProt P00797); assay: Human renin inhibition; assay type: biochemical; details: purified human kidney renin; dissociation constant of the inhibited enzyme-inhibitor complex
T1 construct: human kidney renin purified as described in Bangham; from tissue; host or cells: human kidney
T1 sequence (P00797 67-406): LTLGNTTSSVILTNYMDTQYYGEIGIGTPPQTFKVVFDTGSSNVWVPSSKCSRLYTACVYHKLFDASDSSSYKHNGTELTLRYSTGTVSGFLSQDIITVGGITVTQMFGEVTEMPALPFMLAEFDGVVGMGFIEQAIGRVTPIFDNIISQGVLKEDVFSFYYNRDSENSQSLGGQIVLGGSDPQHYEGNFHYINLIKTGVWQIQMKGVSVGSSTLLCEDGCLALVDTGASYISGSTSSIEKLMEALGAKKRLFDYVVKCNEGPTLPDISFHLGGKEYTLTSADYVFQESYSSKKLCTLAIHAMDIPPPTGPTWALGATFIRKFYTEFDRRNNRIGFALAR
Method: An assay was carried out in order to determine the inhibitory potency of the peptides of the present invention. The assay measured the inhibition of human kidney renin purified as described in Bangham, D. R., Robertson, I., Robinson, J. I. S., Robinson, C. J., and Tree, M., Clinical Science and Molecular Medicine, 48 (Supp. 2): 136s-159s (1975), and further purified by affinity chromatography on pepstatin-aminohexyl-Sepharase as described in Poe, M., Wu., J. K., Florance, J. R., Radkey, J. A., Bennett, C. D., and Hoagsteen, K., J. Biol. Chem. (1982, in press). The assay was also in accordance with Poe et al. cited above. Results are expressed as KI values, which refer to the dissociation constant of the inhibited enzyme--inhibitor complex. This KI value was obtained as described above. […]

hog kidney renin, sequence (A0A287APG1 67-407): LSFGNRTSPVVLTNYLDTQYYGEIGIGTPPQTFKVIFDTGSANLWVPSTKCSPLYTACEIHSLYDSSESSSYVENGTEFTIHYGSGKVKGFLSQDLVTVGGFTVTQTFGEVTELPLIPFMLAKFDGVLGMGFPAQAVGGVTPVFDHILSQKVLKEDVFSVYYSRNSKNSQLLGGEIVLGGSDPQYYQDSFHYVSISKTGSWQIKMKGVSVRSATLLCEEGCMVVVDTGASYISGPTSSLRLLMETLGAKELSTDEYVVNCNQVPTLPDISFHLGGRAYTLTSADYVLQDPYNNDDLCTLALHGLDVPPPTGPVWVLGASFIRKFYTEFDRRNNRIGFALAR

Compound	IC50 (hog kidney renin) [nM]	Ki (human kidney renin) [nM]	other results
CC(C)C[C@H](NC(=O)C[C@H](O)[C@H](CC(C)C)NC(=O)[C@H](Cc1c[nH]cn1)NC(=O)C(Cc1ccccc1)Cc1ccccc1)C(=O)NCc1ccccc1 [2-benzyl-3-phenylpropionyl-His-Sta-Leu-benzylamide]	150	830	
CC(C)C[C@H](NC(=O)C[C@H](O)[C@H](CC(C)C)NC(=O)[C@H](Cc1c[nH]cn1)NC(=O)C(CCCc1ccccc1)Cc1ccccc1)C(=O)NCc1ccccc1 (stereo partly drawn) [2-phenylpropyl-3-phenylpropionyl-His-Sta-Leu-benzylamide]	31	97	
His-Sta-Ala-Phe-methyl ester [His--Sta--Ala--Phe--methyl ester]			inhibition of renin activity at 10^-4 (printed in the I50 column) (hog kidney renin; pH 7.3, at 10^-4 M): 5%
COC(=O)[C@H](Cc1ccccc1)NC(=O)[C@H](CC(C)C)NC(=O)C[C@H](O)[C@H](CC(C)C)NC(=O)[C@@H](N)Cc1c[nH]cn1 [His--Sta--Leu--Phe--methyl ester, His-Sta-Leu-Phe-methyl ester] (H-H[Sta]LF-OMe)	14000		
CC(C)C[C@H](NC(=O)C[C@H](O)[C@H](CC(C)C)NC(=O)[C@H](Cc1c[nH]cn1)NC(=O)C(Cc1ccccc1)c1ccccc1)C(=O)NCc1ccccc1 (stereo partly drawn) [2,3-diphenylpropionyl-His-Sta-Leu-benzylamide]	2200	900	
CC(C)C[C@H](NC(=O)C[C@H](O)[C@H](CC(C)C)NC(=O)[C@H](Cc1c[nH]cn1)NC(=O)COc1ccccc1)C(=O)N[C@@H](Cc1ccccc1)C(N)=O [POA--His--Sta--Leu--Phe--amide, POA-His-Sta-Leu-Phe-amide] (Phenoxyacetyl-H[Sta]LF-NH2)	7600		
CC(C)C[C@H](NC(=O)C[C@H](O)[C@H](CC1CCCCC1)NC(=O)[C@H](Cc1c[nH]cn1)NC(=O)COc1ccccc1)C(=O)N[C@@H](Cc1ccccc1)C(N)=O [POA--His--ACHPA--Leu--Phe--amide, POA-His-ACHPA^4 -Leu-Phe-amide]	510	1.1	
CC(C)CC=CC(Cc1ccccc1)C(=O)N[C@@H](Cc1c[nH]cn1)C(=O)N[C@@H](CC(C)C)[C@@H](O)CC(=O)N[C@@H](CC(C)C)C(=O)NCc1ccccc1 (stereo partly drawn) [2-(4,4-dimethyl-1-butenyl)-3-phenylpropionyl-His-Sta-Leu-benzylamide]	610		
CC(C)C[C@H](NC(=O)C[C@H](O)[C@H](CC(C)C)NC(=O)[C@H](Cc1c[nH]cn1)NC(=O)C(C)Cc1ccccc1)C(=O)NCc1ccccc1 (single isomer, unassigned) [2-methyl-3-phenylpropionyl-His--Sta--Leu--benzylamide ("A" Isomer), 2-methyl-3-phenylpropionyl-His-Sta-Leu-benzylamide]			inhibition at 1.3 µM (hog kidney renin; pH 7.3, at 1.3 × 10^-6 M, read-out: inhibition of renin activity at 1.3 × 10^-6 (printed in the I50 column)): 15%
CC(C)C[C@H](NC(=O)C[C@H](O)[C@H](CC(C)C)NC(=O)[C@H](Cc1c[nH]cn1)NC(=O)OC(C)(C)C)C(=O)N[C@@H](Cc1ccccc1)C(N)=O [BOC--His--Sta--Leu--Phe--amide, BOC^1 -His-Sta-Leu-Phe-amide] (Boc-H[Sta]LF-NH2)	400000		
CC(C)C[C@H](NC(=O)C[C@H](O)[C@H](CC(C)C)NC(=O)[C@H](Cc1c[nH]cn1)NC(=O)C(CCc1ccccc1)Cc1ccccc1)C(=O)NCc1ccccc1 (stereo partly drawn) [2-phenethyl-3-phenylpropionyl-His-Sta-Leu-benzylamide]	370		
CC(C)C[C@H](NC(=O)C[C@H](O)[C@H](CC(C)C)NC(=O)[C@H](Cc1c[nH]cn1)NC(=O)CCc1ccccc1)C(=O)NCc1ccccc1 [3-phenylpropionyl-His-Sta-Leu-benzylamide]			inhibition at 0.1 µM (hog kidney renin; pH 7.3, at 10^-7 M, read-out: inhibition of renin activity at 10^-7 (printed in the I50 column)): 2%
COC(=O)[C@H](Cc1ccccc1)NC(=O)[C@H](CC(C)C)NC(=O)C[C@H](O)[C@H](CC(C)C)NC(=O)[C@H](Cc1c[nH]cn1)NC(=O)COc1ccccc1 [POA--His--Sta--Leu--Phe--methyl ester, POA^2 -His-Sta-Leu-Phe-methyl ester] (Phenoxyacetyl-H[Sta]LF-OMe)	3300		
CC(C)C[C@H](NC(=O)C[C@H](O)[C@H](CC(C)C)NC(=O)[C@H](Cc1c[nH]cn1)NC(=O)C(C)Cc1ccccc1)C(=O)NCc1ccccc1 (single isomer, unassigned) [2-methyl-3-phenylpropionyl-His--Sta--Leu--benzylamide ("B" Isomer), 2-methyl-3-phenylpropionyl-His-Sta-Leu-benzylamide]	940		

Continued, in another order:

IC50 (hog kidney renin) [nM]	Ki (human kidney renin) [nM]	Compound	other results
520	17	CC(C)C[C@H](NC(=O)C[C@H](O)[C@H](CC(C)C)NC(=O)[C@H](Cc1c[nH]cn1)NC(=O)C(CCCCc1ccccc1)Cc1ccccc1)C(=O)NCc1ccccc1 (stereo partly drawn) [2-phenylbutyl-3-phenylpropionyl-His-Sta-Leu-benzylamide]	
35	71	CC(C)C[C@H](NC(=O)C[C@H](O)[C@H](Cc1ccccc1)NC(=O)[C@H](Cc1c[nH]cn1)NC(=O)CCc1ccccc1)C(=O)NCc1ccccc1 [3-phenylpropionyl-His-AHPPA-Leu-benzylamide]	
1400		CCC(Cc1ccccc1)C(=O)N[C@@H](Cc1c[nH]cn1)C(=O)N[C@@H](CC(C)C)[C@@H](O)CC(=O)N[C@@H](CC(C)C)C(=O)NCc1ccccc1 (stereo partly drawn) [2-ethyl-3-phenylpropionyl-His-Sta-Leu-benzylamide]	
2.6	34	CC(C)C[C@H](NC(=O)C[C@H](O)[C@H](Cc1ccccc1)NC(=O)[C@H](Cc1c[nH]cn1)NC(=O)C(Cc1ccccc1)Cc1ccccc1)C(=O)NCc1ccccc1 [2-benzyl-3-phenylpropionyl-His-AHPPA-Leu-benzylamide]	
40000		CC(C)C[C@H](NC(=O)[C@H](Cc1c[nH]cn1)NC(=O)COc1ccccc1)[C@@H](O)CC(=O)N[C@@H](Cc1ccccc1)C(=O)N[C@@H](Cc1ccccc1)C(N)=O [POA--His--Sta--Phe--Phe--amide, POA-His-Sta-Phe-Phe-amide] (Phenoxyacetyl-H[Sta]FF-NH2)	
260		CC(C)C[C@H](NC(=O)C[C@H](O)[C@H](CC(C)C)NC(=O)[C@H](Cc1c[nH]cn1)NC(=O)C(C=Cc1ccccc1)Cc1ccccc1)C(=O)NCc1ccccc1 (stereo partly drawn) [2-phenethenyl-3-phenylpropionyl-His-Sta-Leu-benzylamide]	
1400		CC[C@H](C)[C@H](NC(=O)C[C@H](O)[C@H](CC1CCCCC1)NC(=O)[C@H](Cc1c[nH]cn1)NC(=O)COc1ccccc1)C(=O)NCc1ccccn1 [POA-His-ACHPA-Ile-2-pyridylmethylamide]	
20	10	CC(C)C[C@H](NC(=O)C[C@H](O)[C@H](Cc1ccccc1)NC(=O)[C@H](Cc1c[nH]cn1)NC(=O)COc1ccccc1)C(=O)NCc1ccccc1 [POA--His--AHPPA--Leu--benzylamide, Phenoxyacetyl-L-histidyl-(3S,4S)-AHPPA-L-leucyl-benzylamide]	
8.1	23	CC(C)C[C@H](NC(=O)C[C@H](O)[C@H](Cc1ccccc1)NC(=O)[C@H](Cc1c[nH]cn1)NC(=O)C(CCCc1ccccc1)Cc1ccccc1)C(=O)NCc1ccccc1 (stereo partly drawn) [2-phenylpropyl-3-phenylpropionyl-His-AHPPA-Leu-benzylamide]	
290		CC[C@H](C)[C@H](NC(=O)C[C@H](O)[C@H](CC1CCCCC1)NC(=O)[C@H](Cc1c[nH]cn1)NC(=O)COc1ccccc1)C(=O)NCc1ccccc1 [POA--His--ACHPA--Ile--benzylamide, POA-His-ACHPA-Ile-benzylamide]	
